Assay [1] relates to B. subtilis ATCC 6633. The experiment in a line: MIC by agar plate dilution method, B. subtilis ATCC 6633. The format is cell-based. The following applies: Bacillus subtilis, ATCC6633; Test 2; B. subtilis ATCC 6633; inoculum 10^6; 37° C., 18 hours; read-out: minimum inhibitory concentration (MIC). Here is the method: (§1) Test method: The MIC was measured by an agar plate dilution method in accordance with a standard method of Japan Chemotherapeutic Society (cf. Nippon Kagaku Ryoho Gakkaishi, 29(1), 76-79, 1981). Thus, the organisms incubated at 37° C. for 18 hours using sensitivity test broth (Nissei) was diluted to 10^6 CFU/ml using the same broth. […] As a control, enoxacin and ofloxacin were used in Tests 1 and 2, respectively.
(§2) The numbers of the inoculated bacteria were 10^6 in all cases and the unit of the MIC was micrograms/ml.

In assay [2] the test system is P. aeruginosa E-2. The experiment in a line: MIC by agar plate dilution method, P. aeruginosa E-2. The note with it: Pseudomonas aeruginosa, E2; Test 2; P. aeruginosa E-2; inoculum 10^6; 37° C., 18 hours; read-out: minimum inhibitory concentration (MIC). Format: cell-based. Here is the method: as §1, §2
Assay [3] concerns S. aureus 209-P JC. The experiment in a line: MIC by agar plate dilution method, S. aureus 209-P JC. The note with it: Staphylococcus aureus; Test 2; S. aureus 209-P JC; inoculum 10^6; 37° C., 18 hours; read-out: minimum inhibitory concentration (MIC). The format is cell-based. Here is the method:
as §1, §2

Assay [4] relates to K. pneumoniae K-1966. The experiment in a line: MIC by agar plate dilution method, K. pneumoniae K-1966. The format is cell-based. The note with it: Klebsiella pneumoniae, read-out: minimum inhibitory concentration (MIC). The protocol:
as §1, §2

Assay [5] concerns Proteus mirabilis 181. The experiment in a line: MIC by agar plate dilution method, Proteus mirabilis 181. Format: cell-based. The note with it: Test 2; Proteus mirabilis 181; inoculum 10^6; 37° C., 18 hours; read-out: minimum inhibitory concentration (MIC). The protocol:
as §1, §2

Assay [6] deals with E. coli NIHJ JC-2. The experiment in a line: MIC by agar plate dilution method, E. coli NIHJ JC-2. Format: cell-based. The following applies: Escherichia coli, read-out: minimum inhibitory concentration (MIC). Here is the method:
as §1, §2

Assay [7] relates to S. flexneri. The experiment in a line: MIC by agar plate dilution method, S. flexneri. Format: cell-based. The note with it: Shigella flexneri, Test 2, inoculum 10^6, 37° C., 18 hours, read-out: minimum inhibitory concentration (MIC). Here is the method: as §1, §2
The test system of assay [8] is S. marcescens IFO 3736. The experiment in a line: MIC by agar plate dilution method, S. marcescens IFO 3736. The following applies: Serratia marcescens, IFO3736; Test 2; S. Marcescens IFO 3736; inoculum 10^6; 37° C., 18 hours; read-out: minimum inhibitory concentration (MIC). Format: cell-based. Here is the method:
as §1, §2

In assay [9] the test system is S. epidermidis. The experiment in a line: MIC by agar plate dilution method, S. epidermidis. Format: cell-based. The note with it: Staphylococcus epidermidis, Test 2, inoculum 10^6, 37° C., 18 hours, read-out: minimum inhibitory concentration (MIC). Here is the method:
as §1, §2

Assay [10] concerns M. luteus ATCC 9341. The experiment in a line: MIC by agar plate dilution method, M. luteus ATCC 9341. Format: cell-based. The note with it: Micrococcus luteus, ATCC9341; Test 2; M. luteus ATTC 9341; inoculum 10^6; 37° C., 18 hours; read-out: minimum inhibitory concentration (MIC). Here is the method:
as §1, §2

Assay [11] concerns infections caused by Gram positive bacteria and Pseudomonas aeruginosa (chronic). The note with it: background statement; cited from earlier work.
The mark [12] stands for this setting: K1966, Test 2, K. pneumoniae K-1966, inoculum 10^6, 37° C., 18 hours.
Where [13] appears, read: NIHJJC2, Test 2, E. coli NIHJ JC-2, inoculum 10^6, 37° C., 18 hours.

SMILES strings stand for the structures. In brackets after ≈: the same amount, converted by molar mass. Like-named read-outs stand apart in the source and are kept apart here.

In the case of `O=C(O)c1c2n(c3cc(N4CCNCC4)c(F)cc3c1=O)C(c1ccccc1)S2` (stereo not drawn) [Table 1 (11), 6-Fluoro-4-oxo-1-phenyl-7-(1-piperazinyl)-4H-(1,3)thiazeto(3,2-a)quinoline-3-carboxylic acid], the MIC amounted to 0.05 µg/mL (≈ 0.122 µM) in assay [1]; 0.2 µg/mL (≈ 0.486 µM) in [2]; 0.2 µg/mL (≈ 0.486 µM) in assay [3]; 0.025 µg/mL (≈ 0.0608 µM) in assay [4] (setting [12]); 0.05 µg/mL (≈ 0.122 µM) in assay [5]; 0.025 µg/mL (≈ 0.0608 µM) in assay [6] (setting [13]). In addition, the MIC in assay [7] turned out to be 0.025 µg/mL (≈ 0.0608 µM); in assay [8] it was 0.05 µg/mL (≈ 0.122 µM); in assay [9], 1.56 µg/mL (≈ 3.79 µM); in assay [10] it was 3.13 µg/mL (≈ 7.61 µM).

Consider `O=C(O)c1c2n(c3cc(N4CCNCC4)c(F)cc3c1=O)C(c1ccc(F)cc1)S2` (stereo not drawn) [Table 1 (12), 6-Fluoro-1-(4-fluorophenyl)-4-oxo-7-(1-piperazinyl)-4H-(1,3)thiazeto(3,2-a)quinoline-3-carboxylic acid], for which the MIC turned out to be 0.05 µg/mL (≈ 0.116 µM) in [1]; 0.39 µg/mL (≈ 0.908 µM) in assay [2]; 0.2 µg/mL (≈ 0.466 µM) in [3]; 0.0125 µg/mL (≈ 0.0291 µM) in assay [4] (setting [12]); 0.2 µg/mL (≈ 0.466 µM) in assay [5]; 0.025 µg/mL (≈ 0.0582 µM) in assay [6] (setting [13]). Further, the MIC in assay [7] worked out at 0.025 µg/mL (≈ 0.0582 µM); in assay [8], 0.39 µg/mL (≈ 0.908 µM); in [9], 0.39 µg/mL (≈ 0.908 µM); in assay [10], 1.56 µg/mL (≈ 3.63 µM).

As to `CC1Sc2c(C(=O)O)c(=O)c3cc(F)c(N4CCNCC4)cc3n21` (stereo not drawn) [Table 1 (13), 6-Fluoro-1-methyl-4-oxo-7-(1-piperazinyl)-4H-(1,3)thiazeto(3,2-a)quinoline-3-carboxylic acid], the MIC in [1] came to 0.1 µg/mL (≈ 0.286 µM); in [2], 0.2 µg/mL (≈ 0.572 µM); in assay [3], 0.1 µg/mL (≈ 0.286 µM); in assay [4] (K1966, 18 h), 0.0125 µg/mL (≈ 0.0358 µM); in [5], 0.025 µg/mL (≈ 0.0716 µM); in [6] (NIHJJC2, 18 h), 0.0125 µg/mL (≈ 0.0358 µM). In addition, the MIC in assay [7] stood at 0.0125 µg/mL (≈ 0.0358 µM); in assay [8], 0.05 µg/mL (≈ 0.143 µM); in assay [9] it was 3.13 µg/mL (≈ 8.96 µM); in assay [10], 1.56 µg/mL (≈ 4.46 µM).

For `CCn1cc(C(=O)O)c(=O)c2ccc(C)nc21` [nalidixic acid], the “activity against infections caused by Gram positive bacteria and Pseudomonas aeruginosa (chronic)” value (“activity against infections caused” for short) in assay [11] is “not active”.

Turning to `CCn1cc(C(=O)O)c(=O)c2cnc(N3CCNCC3)nc21` [pipemidic acid], the “activity against infections caused” value in [11] is reported as “not active”.

For the compound `CCn1cc(C(=O)O)c(=O)c2cnc(N3CCCC3)nc21` [piromidic acid], in assay [11], the “activity against infections caused” value is “not active”.

These data come from patent US4843070A, “Substituted thiazetoquinoline-3-carboxylic acids and pharmaceutically acceptable salts thereof” (priority 1986, dated 1989).
